Laboratory results reported in ChEMBL document CHEMBL3885861, “Open TG-GATES”.

Organism: Rattus norvegicus
Experiment: Open TG-GATES - Regimen: Single
Format: toxicity, organism-based, Sprague-Dawley
Set-up: regimen Single, gender Male, age 6 weeks
Settings: in vivo, po, 30 mg/kg, route gavage, dose level Middle; for APTT / Bas / Eos / Fbg / Hb / Ht / Lym / MCH / MCHC / MCV / Mono / Neu / PT / Plat / RBC / Ret / WBC: tissue Blood; for KIDNEY_L / KIDNEY_R / KIDNEY_TOTAL: tissue Kidney; for LIVER: tissue Liver; for A/G / ALP / ALT / AST / BUN / CRE / Ca / Cl / DBIL / GLC / IP / K / LDH / Na / PL / RALB / TBIL / TC / TG / TP / gamma-GTP: tissue Plasma

In the case of `CCN(CC)N=O` [N-NITROSODIETHYLAMINE], the TERMINAL_BW (3 h) is reported as 220.7 g, the APTT (3 h) is reported as 19.6 s and the Bas (3 h) is reported as 0%. It also gave an Eos (3 h) of 1%, a Fbg (3 h) of 200.2 mg/dL and a Hb (3 h) of 13.1 g/dL. It also gave a Ht (3 h) of 37.7%, a Lym (3 h) of 80.2% and an MCH (3 h) of 21.4 pg. It also gave an MCHC (3 h) of 34.6%, an MCV (3 h) of 61.8 fL and a Mono (3 h) of 1.6%. It also gave a Neu (3 h) of 16.6%, a PT (3 h) of 12 s and a Plat (3 h) of 118.4 x10_4/uL. For the same compound, the RBC (3 h) was 610.2 x10_4/ul, the Ret (3 h) was 7.2% and the WBC (3 h) was 67.1 x10_2/uL. The KIDNEY_L (3 h) was 1 g, the KIDNEY_R (3 h) was 1 g and the KIDNEY_TOTAL (3 h) was 2 g. The LIVER (3 h) was 9.5 g, the A/G (3 h) was 1.6 and the ALP (3 h) was 868.6 IU/L. The ALT (3 h) was 37.8 IU/L, the AST (3 h) was 72 IU/L and the BUN (3 h) was 11 mg/dL. It also gave a CRE (3 h) of 0.4 mg/dL, a Ca (3 h) of 10.1 mg/dL and a Cl (3 h) of 102.4 meq/L. For the same compound, the DBIL (3 h) was 0.06 mg/dL, the GLC (3 h) was 195.6 mg/dL and the IP (3 h) was 8.6 mg/dL. The K (3 h) was 3.6 meq/L, the LDH (3 h) was 179.2 IU/L and the Na (3 h) was 140.6 meq/L. The PL (3 h) was 130.2 mg/dL, the RALB (3 h) was 3.3 g/dL and the TBIL (3 h) was 0.1 mg/dL. It also gave a TC (3 h) of 82.6 mg/dL, a TG (3 h) of 38.6 mg/dL and a TP (3 h) of 5.4 g/dL. For the same compound, the gamma-GTP (3 h) was 0.8 IU/L, the TERMINAL_BW (6 h) was 224.6 g and the APTT (6 h) was 18.5 s. For the same compound, the Bas (6 h) was 0.6%, the Eos (6 h) was 1% and the Fbg (6 h) was 234.2 mg/dL. For the same compound, the Hb (6 h) was 13.4 g/dL, the Ht (6 h) was 38.8% and the Lym (6 h) was 78.8%. The MCH (6 h) was 21.8 pg, the MCHC (6 h) was 34.5% and the MCV (6 h) was 63.1 fL. The Mono (6 h) was 2.8%, the Neu (6 h) was 16.2% and the PT (6 h) was 12.4 s. It also gave a Plat (6 h) of 135.1 x10_4/uL, an RBC (6 h) of 615.6 x10_4/ul and a Ret (6 h) of 7.7%. For the same compound, the WBC (6 h) was 111.7 x10_2/uL, the KIDNEY_L (6 h) was 1 g and the KIDNEY_R (6 h) was 1 g. The KIDNEY_TOTAL (6 h) was 1.9 g, the LIVER (6 h) was 9.9 g and the A/G (6 h) was 1.6. The ALP (6 h) was 932.2 IU/L, the ALT (6 h) was 40.6 IU/L and the AST (6 h) was 78 IU/L. The BUN (6 h) was 14.2 mg/dL, the CRE (6 h) was 0.4 mg/dL and the Ca (6 h) was 10.3 mg/dL. It also gave a Cl (6 h) of 104.2 meq/L, a DBIL (6 h) of 0.072 mg/dL and a GLC (6 h) of 186.4 mg/dL. It also gave an IP (6 h) of 8.3 mg/dL, a K (6 h) of 3.9 meq/L and an LDH (6 h) of 224 IU/L. For the same compound, the Na (6 h) was 141 meq/L, the PL (6 h) was 130.8 mg/dL and the RALB (6 h) was 3.3 g/dL. The TBIL (6 h) was 0.1 mg/dL, the TC (6 h) was 81.4 mg/dL and the TG (6 h) was 37.8 mg/dL. The TP (6 h) was 5.4 g/dL, the gamma-GTP (6 h) was 1.6 IU/L and the TERMINAL_BW (9 h) was 224.1 g. The APTT (9 h) was 18.7 s, the Bas (9 h) was 0.4% and the Eos (9 h) was 1%. The Fbg (9 h) was 229 mg/dL, the Hb (9 h) was 13.7 g/dL and the Ht (9 h) was 39.6%. For the same compound, the Lym (9 h) was 79.6%, the MCH (9 h) was 21.5 pg and the MCHC (9 h) was 34.4%. The MCV (9 h) was 62.4 fL, the Mono (9 h) was 3% and the Neu (9 h) was 15%. The PT (9 h) was 12.4 s, the Plat (9 h) was 126.6 x10_4/uL and the RBC (9 h) was 635.4 x10_4/ul. The Ret (9 h) was 7.1%, the WBC (9 h) was 94.4 x10_2/uL and the KIDNEY_L (9 h) was 1 g. The KIDNEY_R (9 h) was 1 g, the KIDNEY_TOTAL (9 h) was 1.9 g and the LIVER (9 h) was 10 g. For the same compound, the A/G (9 h) was 1.7, the ALP (9 h) was 978.4 IU/L and the ALT (9 h) was 45.6 IU/L. It also gave an AST (9 h) of 80.4 IU/L, a BUN (9 h) of 15.4 mg/dL and a CRE (9 h) of 0.4 mg/dL. It also gave a Ca (9 h) of 10.4 mg/dL, a Cl (9 h) of 103.4 meq/L and a DBIL (9 h) of 0.088 mg/dL. It also gave a GLC (9 h) of 186 mg/dL, an IP (9 h) of 8.6 mg/dL and a K (9 h) of 3.8 meq/L. The LDH (9 h) was 191.6 IU/L, the Na (9 h) was 141.2 meq/L and the PL (9 h) was 130.4 mg/dL. It also gave an RALB (9 h) of 3.5 g/dL, a TBIL (9 h) of 0.1 mg/dL and a TC (9 h) of 76.8 mg/dL. It also gave a TG (9 h) of 44.8 mg/dL, a TP (9 h) of 5.5 g/dL and a gamma-GTP (9 h) of 1.4 IU/L. The TERMINAL_BW (24 h) was 225 g, the APTT (24 h) was 17.9 s and the Bas (24 h) was 1%. The Eos (24 h) was 1%, the Fbg (24 h) was 217.4 mg/dL and the Hb (24 h) was 14 g/dL. For the same compound, the Ht (24 h) was 41.2%, the Lym (24 h) was 81% and the MCH (24 h) was 21.6 pg. The MCHC (24 h) was 33.9%, the MCV (24 h) was 63.8 fL and the Mono (24 h) was 3%. It also gave a Neu (24 h) of 13.6%, a PT (24 h) of 12.7 s and a Plat (24 h) of 125.9 x10_4/uL. For the same compound, the RBC (24 h) was 645.6 x10_4/ul, the Ret (24 h) was 6.7% and the WBC (24 h) was 95.1 x10_2/uL. It also gave a KIDNEY_L (24 h) of 1 g, a KIDNEY_R (24 h) of 1 g and a KIDNEY_TOTAL (24 h) of 2 g. It also gave an LIVER (24 h) of 9.5 g, an A/G (24 h) of 1.6 and an ALP (24 h) of 918.6 IU/L. The ALT (24 h) was 37.8 IU/L, the AST (24 h) was 71 IU/L and the BUN (24 h) was 12.8 mg/dL. For the same compound, the CRE (24 h) was 0.4 mg/dL, the Ca (24 h) was 10.7 mg/dL and the Cl (24 h) was 103.4 meq/L. The DBIL (24 h) was 0.084 mg/dL, the GLC (24 h) was 193 mg/dL and the IP (24 h) was 9 mg/dL. For the same compound, the K (24 h) was 3.9 meq/L, the LDH (24 h) was 212.4 IU/L and the Na (24 h) was 140.6 meq/L. It also gave a PL (24 h) of 135.8 mg/dL, an RALB (24 h) of 3.3 g/dL and a TBIL (24 h) of 0.1 mg/dL. The TC (24 h) was 78.4 mg/dL, the TG (24 h) was 47.2 mg/dL and the TP (24 h) was 5.3 g/dL. For the same compound, the gamma-GTP (24 h) was 1.4 IU/L.
